Assay results as given in US9801372B2, “Polymers for increasing the soil mobility of low-solubility insecticides” (BASF SE, priority 2009, dated 2017).

Procedure: First, a calibration with the active ingredient to be determined is performed at a suitable wavelength in different concentrations. To study the solubilization with a polymeric solubilizer, a 1% by weight polymer solution is prepared and the UV absorption is measured at said wavelength. The polymer solution is saturated with the active ingredient to be analyzed and equilibrated for 24 h. After centrifugation of the solution and UV analysis of the supernatant at said wavelength, after subtracting the polymer absorption over the calibration curve, the dissolved active ingredient concentration can be concluded.
The fipronil concentration was determined by means of UV spectroscopy at 278 nm; to this end, the absorption of the polymer (1% by weight in water) was first determined alone. Subsequently, an excess of fipronil was added and the mixture was stirred at room temperature overnight. The centrifuged solution was analyzed once again at 278 nm in the UV instrument. After subtracting the appropriate solubilizer spectrum and comparing by means of a fipronil calibration curve produced beforehand, it was possible to determine the concentration of dissolved fipronil.

Row | Molecule | Fipronil solubility in ppm
1 | N#Cc1nn(-c2c(Cl)cc(C(F)(F)F)cc2Cl)c(N)c1[S+]([O-])C(F)(F)F (centres unmarked) [Fipronil] | 2.2 ppm
2 | Triton X-100 | 13 ppm
